# From patent US11056705B2, “Organic anolyte materials for flow batteries” (THE REGENTS OF THE UNIVERSITY OF MICHIGAN, priority 2015, dated 2021)
# Marks after values point to notes of the source that are not given here.
# How the values were obtained:
# [1] = Cyclic voltammetry (CV) of anolyte candidates in a three-electrode cell; type: physicochemical; conditions: for reduction within the electrochemical window of MeCN: MeCN with NBu4BF4; for reduction potential: MeCN with NBu4BF4 (TBABF4) supporting electrolyte, versus Ag/Ag+; for ipc1/ipa1 (10 mV/s) / ipc1/ipa1 (100 mV/s) / E1^0: 0.01M substrate, 0.10M support; for ipc1/ipa1 (10 mV/s) / ipc1/ipa1 (100 mV/s): 2nd cycle; for reversibility of reduction: scan rate not specified; for E1^0: Ag/Ag+ reference, (E1c+E1a)/2, — = no anodic current observed; for reversibility of redox couple: 10 mV/s (slower scan rates); for current peak-height ratios: low potential couples in TBABF4 supports
# Experimental: The electrochemistry of a series of heteroarenes was evaluated by cyclic voltammetry (CV). Electrochemical analysis was performed in the absence of oxygen and moisture. The experiments were conducted in a three-electrode cell comprised of a glassy carbon working electrode, a platinum counter electrode, and a Ag/Ag^+ reference electrode. The CV of each anolyte candidate was initially conducted in acetonitrile (MeCN) with tetrabutylammonium tetrafluoroborate (TBABF4) as the supporting electrolyte.
# The reversibility of each redox couple in the CV was estimated by calculating the ratio of the diffusion-limited peak-heights of the cathodic (ipc) and anodic (ipa) currents (FIG. 2). The current peak heights were determined from the second CV cycle, and are all reported following deconvolution of the current-potential plot. […] In addition, […] conducted at slow scan rates allows for an extended lifetime of the reduced species (FIG. 2, 10 mV/s scan). With longer lifetimes, the concentration of charged anolytes that are susceptible to irreversible chemical or electrochemical reactions will decrease, and lower current responses upon re-oxidation will be observed. As a result, redox couples measured at slow scan rates generally occur with current peak-height ratios that deviate from unity to a greater extent than couples measured at faster scan rates. Thus, these techniques provide a method to rapidly assess and compare a range of anolyte materials.
# [2] = as above; type: physicochemical; conditions: for reversibility of redox couple: MeCN/TBABF4; for ipc1/ipa1 (10 mV/s) / ipc2/ipa2 (10 mV/s) / ipc1/ipa1 (100 mV/s): 2nd cycle; for ipc2/ipa2 (10 mV/s): second couple
# [3] = MeCN/LiBF4, 0.01M substrate, 0.10M support
# [4] = MeCN/LiBF4, 0.01M substrate, 0.10M support, (E1c+E1a)/2, — = no anodic current observed
# [5] = MeCN/LiBF4, 0.01M substrate, 0.10M support, (E2c+E2a)/2
# [6] = MeCN/LiBF4, CV measured at 200 mV/s scan rate
# [7] = PC/LiBF4, 0.01M substrate, 0.10M support
# [8] = PC/TBABF4, 0.01M substrate, 0.10M support
compound,measurement,setting,value
"Cc1ccncc1 [4-methylpyridine, reference compound]",reduction within the electrochemical window of MeCN,[1],no reduction was observed
O=C(OC(C(F)(F)F)C(F)(F)F)c1ccncc1 [Compound 3h],reduction potential,[1],approximately −2.0 V
same,ipc1/ipa1 (10 mV/s),[1]; MeCN/TBABF4,>5
same,ipc1/ipa1 (100 mV/s),[1]; MeCN/TBABF4,>5
same,reversibility of reduction,[1]; MeCN/TBABF4,highly irreversible
"COC(=O)c1ccccn1 [Compound 1a, Methyl picolinate]",ipc1/ipa1 (10 mV/s),[1]; MeCN/TBABF4,>5
same,ipc1/ipa1 (100 mV/s),[1]; MeCN/TBABF4,1.83
same,E1^0,[1]; MeCN/TBABF4,−2.36 V
same,reversibility of redox couple,[1]; MeCN/TBABF4,completely irreversible
same,reversibility of redox couple,[2]; 100 mV/s,quasi-reversible
COC(=O)c1cc[n+]([B-](F)(F)F)cc1 [Compound 5a],ipc1/ipa1 (100 mV/s),[1]; MeCN/LiBF4,1.02
same,ipc1/ipa1 (10 mV/s),[1]; MeCN/TBABF4,1.10
same,ipc1/ipa1 (100 mV/s),[1]; MeCN/TBABF4,1.03
same,E1^0,[1]; MeCN/TBABF4,−1.42 V
same,current peak-height ratios,[1],approaching unity
same,ipc1/ipa1 (10 mV/s),[2]; [3],1.06
same,E1^0,[2]; [4],−1.83 V
CC(C)(C)OC(=O)c1cc[n+]([O-])cc1 [Compound 4d],ipc1/ipa1 (100 mV/s),[1]; MeCN/LiBF4,>5
same,ipc1/ipa1 (10 mV/s),[1]; MeCN/TBABF4,1.17
same,ipc1/ipa1 (100 mV/s),[1]; MeCN/TBABF4,1.00
same,E1^0,[1]; MeCN/TBABF4,−2.01 V
same,ipc1/ipa1 (10 mV/s),[2]; [3],>5
CC[n+]1ccc(C(=O)OC)cc1 [Compound 7a],high potential peak,"[1]; MeCN, TBABF4 as the electrolyte",no high potential peak is observed
same,anodic peak with no corresponding cathodic current,"[2]; MeCN, 0.1 M LiBF4, 200 mV/s, +1 V to −2.5 V",+0.4 V
same,ipc1/ipa1 (10 mV/s),[2]; [3],0.98
same,ipc2/ipa2 (10 mV/s),[2]; [3],0.96
same,E1^0,[2]; [4],−1.11 V
same,E2^0,[2]; [5],−1.88 V
same,E1^0,[2]; [6],−1.12 V
same,ipc1/ipa1,[2]; [6],1.02^f
same,ipc2/ipa2,[2]; [6],1.08^f
same,current peaks at positive potentials,"[2]; MeCN/LiBF4, lower scanning limit −1.4 V or −0.5 V",no current peaks were observed
same,high potential peak,"[2]; MeCN, LiTFSI as the support",only a small high potential peak
O=C(OCC(F)(F)F)c1ccncc1 [Compound 3g],reduction potential,[1],approximately −2.0 V
same,ipc1/ipa1 (10 mV/s),[1]; MeCN/TBABF4,>5
same,ipc1/ipa1 (100 mV/s),[1]; MeCN/TBABF4,1.91
same,E1^0,[1]; MeCN/TBABF4,−2.03 V
same,reversibility of reduction,[1]; MeCN/TBABF4,highly irreversible
CC(C)OC(=O)c1ccncc1 [Compound 3c],ipc1/ipa1 (10 mV/s),[1]; MeCN/TBABF4,1.10
same,ipc1/ipa1 (100 mV/s),[1]; MeCN/TBABF4,1.02
same,E1^0,[1]; MeCN/TBABF4,−2.20 V
CN(C)C(=O)c1ccncc1 [Compound 3e],ipc1/ipa1 (10 mV/s),[1]; MeCN/TBABF4,>5
same,ipc1/ipa1 (100 mV/s),[1]; MeCN/TBABF4,1.18
same,E1^0,[1]; MeCN/TBABF4,−2.52 V
same,reversibility of redox couple,[1]; MeCN/TBABF4,irreversible
same,reversibility of redox couple,[2]; 100 mV/s,quasi-reversible
CC(C)OC(=O)c1cc[n+]([B-](F)(F)F)cc1 [Compound 5c],ipc1/ipa1 (100 mV/s),[1]; MeCN/LiBF4,1.06
same,ipc1/ipa1 (10 mV/s),[2]; [3],1.09
same,E1^0,[2]; [4],−1.80 V
CCOC(=O)c1cc[n+](CC)cc1 [Compound 7b],ipc1/ipa1 (10 mV/s),[2]; [3],0.99
same,ipc2/ipa2 (10 mV/s),[2]; [3],0.96
same,E1^0,[2]; [4],−1.11 V
same,E2^0,[2]; [5],−1.90 V
"Cc1ccccn1 [2-methylpyridine, reference compound]",reduction within the electrochemical window of MeCN,[1],no reduction was observed
CCOC(=O)c1cc[n+](CC)cc1.[I-] [Compound 6b],ipc1/ipa1 (10 mV/s),[2]; [3],0.98
same,ipc2/ipa2 (10 mV/s),[2]; [3],0.94
same,E1^0,[2]; [4],−1.10 V
same,E2^0,[2]; [5],−1.86 V
COC(=O)c1cc[n+]([O-])cc1 [Compound 4a],ipc1/ipa1 (100 mV/s),[1]; MeCN/LiBF4,>5
same,ipc1/ipa1 (10 mV/s),[1]; MeCN/TBABF4,1.41
same,ipc1/ipa1 (100 mV/s),[1]; MeCN/TBABF4,1.05
same,E1^0,[1]; MeCN/TBABF4,−1.96 V
same,ipc1/ipa1 (10 mV/s),[2]; [3],>5
CC[n+]1ccc(C(=O)OC)cc1.[I-] [Compound 6a],ipc1/ipa1 (10 mV/s),[2]; [3],0.99
same,ipc2/ipa2 (10 mV/s),[2]; [3],0.95
same,E1^0,[2]; [4],−1.11 V
same,E2^0,[2]; [5],−1.85 V
CC[n+]1ccc(C(=O)OC)cc1 [Compound 8a],ipc1/ipa1 (10 mV/s),[2]; [3],0.98
same,ipc2/ipa2 (10 mV/s),[2]; [3],0.95
same,E1^0,[2]; [4],−1.11 V
same,E2^0,[2]; [5],−1.89 V
CCOC(=O)c1cc[n+]([O-])cc1 [Compound 4b],ipc1/ipa1 (100 mV/s),[1]; MeCN/LiBF4,>5
same,ipc1/ipa1 (10 mV/s),[2]; [3],>5
"COc1ccnc(-c2cc(OC)ccn2)c1 [4,4′-methoxy bipyridine, reference compound]",reduction potential,[1],−2.6 V
same,reversibility of reduction,[1]; MeCN/TBABF4,reversibly
CC(C)(C)OC(=O)c1cc[n+]([B-](F)(F)F)cc1 [Compound 5d],ipc1/ipa1 (100 mV/s),[1]; MeCN/LiBF4,1.06
same,ipc1/ipa1 (10 mV/s),[1]; MeCN/TBABF4,1.05
same,ipc1/ipa1 (100 mV/s),[1]; MeCN/TBABF4,1.03
same,E1^0,[1]; MeCN/TBABF4,−1.45 V
same,current peak-height ratios,[1],approaching unity
same,re-oxidation after the second reduction,"[2]; LiBF4 supporting electrolyte, 100 mV/s, scanned to more negative potentials",Minimal re-oxidation
same,ipc1/ipa1 (10 mV/s),[2]; [3],1.11
same,E1^0,[2]; [4],−1.84 V
CCOC(=O)c1cc[n+]([B-](F)(F)F)cc1 [Compound 5b],ipc1/ipa1 (100 mV/s),[1]; MeCN/LiBF4,1.06
same,ipc1/ipa1 (10 mV/s),[2]; [3],1.08
same,E1^0,[2]; [4],−1.80 V
CCOC(=O)c1ccncc1 [Compound 3b],ipc1/ipa1 (10 mV/s),[1]; MeCN/TBABF4,1.28
same,ipc1/ipa1 (100 mV/s),[1]; MeCN/TBABF4,1.03
same,E1^0,[1]; MeCN/TBABF4,−2.20 V
N#CCOC(=O)c1ccncc1 [Compound 3f],reduction potential,[1],approximately −2.0 V
same,ipc1/ipa1 (10 mV/s),[1]; MeCN/TBABF4,>5
same,ipc1/ipa1 (100 mV/s),[1]; MeCN/TBABF4,>5
same,reversibility of reduction,[1]; MeCN/TBABF4,highly irreversible
CC[n+]1ccc(C(=O)OC(C)C)cc1 [Compound 7c],ipc1/ipa1 (10 mV/s),[2]; [3],0.97
same,ipc2/ipa2 (10 mV/s),[2]; [3],0.95
same,E1^0,[2]; [4],−1.13 V
same,E2^0,[2]; [5],−1.89 V
"COc1ccncc1 [4-methoxypyridine, reference compound]",reduction within the electrochemical window of MeCN,[1],no reduction was observed
CC(C)OC(=O)c1cc[n+]([O-])cc1 [Compound 4c],ipc1/ipa1 (100 mV/s),[1]; MeCN/LiBF4,>5
same,ipc1/ipa1 (10 mV/s),[2]; [3],>5
"COC(=O)c1cccnc1 [Compound 2a, methyl nicotinate]",ipc1/ipa1 (10 mV/s),[1]; MeCN/TBABF4,>5
same,ipc1/ipa1 (100 mV/s),[1]; MeCN/TBABF4,>5
same,reversibility of reduction,[1]; MeCN/TBABF4,No re-oxidation current was observed
CC[n+]1ccc(C(=O)OC(C)(C)C)cc1 [Compound 7d],ipc1/ipa1 (10 mV/s),[2]; [3],0.99
same,ipc2/ipa2 (10 mV/s),[2]; [3],0.93
same,E1^0,[2]; [4],−1.15 V
same,E2^0,[2]; [5],−1.93 V
same,E1^0,[2]; [6],−1.14 V
same,E2^0,[2]; [6],−1.92 V
same,ipc1/ipa1,[2]; [6],1.09^f
same,ipc2/ipa2,[2]; [6],1.38^f
"COc1ccccn1 [2-methoxypyridine, reference compound]",reduction within the electrochemical window of MeCN,[1],no reduction was observed
CC(C)(C)OC(=O)c1ccncc1 [Compound 3d],ipc1/ipa1 (10 mV/s),[1]; MeCN/TBABF4,1.09
same,ipc1/ipa1 (100 mV/s),[1]; MeCN/TBABF4,1.01
same,E1^0,[1]; MeCN/TBABF4,−2.24 V
same,reversible reduction processes,"[2]; LiBF4 support, scan rates between 10 and 500 mV/s, acetonitrile or propylene carbonate",No reversible reduction processes were observed
"COC(=O)c1ccncc1 [Compound 3a, methyl isonicotinate]",ipc1/ipa1 (100 mV/s),[1]; MeCN/LiBF4,>5
same,ipc1/ipa1 (10 mV/s),[1]; MeCN/TBABF4,1.67
same,ipc1/ipa1 (100 mV/s),[1]; MeCN/TBABF4,1.15
same,E1^0,[1]; MeCN/TBABF4,−2.16 V
same,reversibility of redox couple,[1]; MeCN/TBABF4,reversible
same,ipc1/ipa1 (10 mV/s),[2]; [3],>5
same,ipc1/ipa1 (10 mV/s),[2]; [7],>5
same,ipc1/ipa1 (100 mV/s),[2]; [7],>5
same,E1^0,[2]; [8],−2.62 V
same,ipc1/ipa1 (10 mV/s),[2]; [8],2.02
same,ipc1/ipa1 (100 mV/s),[2]; [8],1.35
